Where two headings read alike, the source gives them in different places.
Assays:
[1] = tested on: Rat C6 glioma (ATCC No. CCL107); assay: Anti-inflammatory activity: isoproterenol-induced cAMP synthesis (ELISA); format: cell-based; details: cAMP after 30 min, induced by (−)-isoproterenol; for IC50: Rattus norvegicus, C6 glioma, 0.5 h, read-out: I50
Procedure: Anti-inflammatory activity of several of the substituted 6-anilinopurine derivatives of this invention was determined; kinetin was also evaluated as a control. Rat C6 glioma (ATCC No. CCL107) was cultivated in monolayer in serum-free chemically defined medium containing Ham's F10/minimal essential medium (1:1 v/v), 2 mM L-glutamine, 1% (v/v) minimal essential medium vitamins (100×), 1% (v/v) minimal essential medium nonessential amino acids (100×), 100 U/ml penicillin, […], and 30 nM sodium selenite. Incubation was performed at 37° C. in a 100% humidified atmosphere. The assays were performed in the logarithmic growth phase at a density of 2.5×10^5 cells/cm^2. Intracellular cAMP synthesis was induced by addition of 5 mM (−)-isoproterenol; various amounts of test compounds were added at the same time as the (−)-isoproterenol. After 30 min incubation, the cellular amount of cAMP was determined using ELISA (cAMP-enzyme immunoassay kit from Amersham). The I50 values were determined from the dose-response curve in duplicate.

[2] = target: T1, AHK3 (Arabidopsis thaliana, UniProt Q9C5U1); assay: Activation of cytokinin receptors (E. coli KMI001 beta-galactosidase reporter); format: cell-based; details: 28 h incubation; n.a. means no activation
T1 sequence (Q9C5U1 1-1036): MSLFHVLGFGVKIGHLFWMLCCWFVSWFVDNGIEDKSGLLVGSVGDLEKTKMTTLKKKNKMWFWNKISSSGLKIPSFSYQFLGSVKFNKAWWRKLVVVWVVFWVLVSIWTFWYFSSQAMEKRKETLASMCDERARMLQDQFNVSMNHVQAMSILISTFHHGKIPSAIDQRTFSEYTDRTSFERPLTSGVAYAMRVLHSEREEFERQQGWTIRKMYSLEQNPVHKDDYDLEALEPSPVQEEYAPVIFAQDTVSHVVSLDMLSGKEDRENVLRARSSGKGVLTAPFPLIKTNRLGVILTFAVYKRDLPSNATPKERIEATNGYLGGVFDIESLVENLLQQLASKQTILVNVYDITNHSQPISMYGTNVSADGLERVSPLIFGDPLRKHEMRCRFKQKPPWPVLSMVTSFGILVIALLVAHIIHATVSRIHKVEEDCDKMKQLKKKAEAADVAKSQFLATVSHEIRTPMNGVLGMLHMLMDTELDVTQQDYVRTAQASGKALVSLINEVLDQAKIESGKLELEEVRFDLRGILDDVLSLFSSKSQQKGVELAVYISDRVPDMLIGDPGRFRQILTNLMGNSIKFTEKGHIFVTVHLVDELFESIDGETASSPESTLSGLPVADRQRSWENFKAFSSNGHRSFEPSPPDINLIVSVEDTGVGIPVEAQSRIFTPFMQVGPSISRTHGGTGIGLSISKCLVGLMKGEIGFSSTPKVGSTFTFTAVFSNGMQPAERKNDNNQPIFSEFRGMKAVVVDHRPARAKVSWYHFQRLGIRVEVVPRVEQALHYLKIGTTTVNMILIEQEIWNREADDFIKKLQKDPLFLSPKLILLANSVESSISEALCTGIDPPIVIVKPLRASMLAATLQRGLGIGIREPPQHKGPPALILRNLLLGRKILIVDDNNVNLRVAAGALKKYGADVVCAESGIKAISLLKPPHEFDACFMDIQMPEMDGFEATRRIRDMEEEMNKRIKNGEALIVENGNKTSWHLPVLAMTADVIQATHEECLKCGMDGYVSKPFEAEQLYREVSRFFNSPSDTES
Outline: (§1)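 E. coli KMI001 carrying the receptor plasmid was grown in M9 + 0.1% casamino acids at 25 °C, diluted 1:600 and treated with compound (stock solutions 10^-7–5×10^-5 M). Supernatant β-galactosidase was read by 4-methylumbelliferyl galactoside hydrolysis (1 h, 37 °C, Na2CO3 stop). EC50 came from dose-response curves, triplicate means.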

[3] = target: T2, recombinant AtCKX2 (Arabidopsis thaliana, UniProt Q9FUJ3); assay: Inhibition of cytokinin oxidase/dehydrogenase activity (PMS/MTT microtitre plate assay); format: biochemical; details: 30 μM iP as substrate, pH 7.4, 37° C.; means of three replicates; read-out: IC50, inhibition of recombinant AtCKX2
T2 sequence (Q9FUJ3 23-501): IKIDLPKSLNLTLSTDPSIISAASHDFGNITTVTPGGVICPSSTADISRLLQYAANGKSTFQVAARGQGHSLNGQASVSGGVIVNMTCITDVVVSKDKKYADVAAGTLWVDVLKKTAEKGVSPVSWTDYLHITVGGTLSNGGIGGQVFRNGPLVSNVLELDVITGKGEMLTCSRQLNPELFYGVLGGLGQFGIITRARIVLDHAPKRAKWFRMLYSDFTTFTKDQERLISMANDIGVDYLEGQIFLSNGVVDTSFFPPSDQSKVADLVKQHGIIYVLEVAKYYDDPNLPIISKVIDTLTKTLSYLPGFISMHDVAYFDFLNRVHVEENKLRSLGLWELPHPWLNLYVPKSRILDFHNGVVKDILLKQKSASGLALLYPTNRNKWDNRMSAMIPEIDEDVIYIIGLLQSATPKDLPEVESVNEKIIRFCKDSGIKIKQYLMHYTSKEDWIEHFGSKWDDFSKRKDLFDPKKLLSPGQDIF
Procedure: IC50 determinations were done using the assay in microtitre plate. Each well contained 100 μL of PMS/MTT [phenazine methosulfate/3-(4,5-dimethylthiazol-2-yl)-2,5-diphenyltetrazolium bromide] reaction mixture (final concentrations: 0.1 M KH2PO4, pH 7.4, 1 mM MTT, 0.2 mM PMS) containing the tested compound (3×10^−7 M-3×10^−4 M) and 30 μM N^6-isopentenyladenine (iP) as a substrate. 100 μL of cell-free growth medium of S. cerevisiae strain 23344c ura^− harboring the plasmid pYES2-AtCKX2 was directly used as a source of AtCKX2. Plates were incubated in the dark for […] at 37° C. and the enzymatic reaction was stopped by 25 μL of 35% acetic acid. The absorbance at 578 nm was measured using spectrophotometer Tecan. Absorbance of the sample without iP was subtracted.
The IC50 value, the compound concentration that inhibits the enzyme activity to 50%, was calculated from the obtained dose response curves. The values shown in Table 9 are means of three replicates and the entire test was repeated at least twice.

[4] = target: CRE1/AHK4 (Arabidopsis thaliana, UniProt Q9C5U0); assay: Activation of cytokinin receptors (E. coli KMI001 beta-galactosidase reporter); format: cell-based; details: 17 h incubation; n.a. means no activation
Outline: as §1

[5] = tested on: cytokinin-dependent tobacco callus Nicotiana tabacum L. cv. Wisconsin 38; assay: Tobacco callus biotest (plant cell division); format: cell-based; details: at the concentration with highest activity, relative to 10^−5 M kinetin
[6] = tested on: Amaranthus caudatus cotyledon/hypocotyl explants; assay: Amaranthus bioassay (betacyanin content); format: cell-based, Amaranthus caudatus var. atropurpurea; details: at the concentration with highest activity, relative to 10^−5 M kinetin
Outline: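 Etiolated A. caudatus cotyledon/hypocotyl explants (72 h seedlings, roots removed) incubated 48 h at 25 °C in darkness on medium with phosphate buffer pH 6.8, tyrosine and test compound. Betacyanin extracted in acetic acid, quantified as A537−A620.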

[7] = tested on: osteosarcoma cell line HOS; assay: Calcein AM cytotoxicity assay; format: cell-based, human; details: Homo sapiens, 72 hours
Text: (§2) Absence of toxic effects against mammalian (especially human) cell lines in a wide concentration range is one of the requirements on compounds intended for use in agriculture and medicine. Because toxic compounds negatively influence metabolic processes in cells, many standard cytotoxicity assays are based on measurement of metabolisation rate of various artificial substrates. Resulting product is then quantified e.g. by means of spectrometry. The assays can be easily modified for use in 96-well plates. For evaluation of cytotoxic effect of compounds of this invention, a microtiter assay based on quantification of metabolisation of Calcein AM was used. The assay is widely used in drug screening programs and in chemosensitivity testing. In live cells, Calcein AM is enzymatically hydrolysed and accumulation of resulting calcein is manifested by green fluorescence.
(§3) Following human cell lines were used for routine screening of the compounds: T-lymphoblastic leukemia cell line CEM, promyelocytic leukemia cell line HL-60, erytroid leukemia cell line K-562, breast carcinoma cell line MCF-7, osteosarcoma cell line HOS and melanoma cell line G-361. Mouse cell lines B16-F10 (melanoma) and NIH-3T3 (fibroblasts) were used as well. The cells were maintained in Nunc/Corning 80 cm^2 plastic tissue culture flasks and cultured in cell culture medium (DMEM with 5 g/l glucose, 2 mM glutamine, 100 U/ml penicillin, 100 μg/ml streptomycin, 10% fetal calf serum and sodium bicarbonate).
(§4) The cell suspensions were prepared and diluted according to the particular cell type and the expected target cell density (2.500-30.000 cells per well based on cell growth characteristics) and pippetted (80 μl) into 96-well plates. Inoculates were allowed a pre-incubation period of 24 hours at 37° C. and 5% CO2 for stabilisation. Tested compound was added in total volume of 20 μl of water at time zero. Usually, test compound was evaluated at six 3-fold dilutions. In routine testing, the highest concentration tested was 166.6 μM. All drug concentrations were tested in triplicates. Incubations of cells with the test compounds lasted for 72 hours at 37° C., in 5% CO2 atmosphere and 100% humidity. At the end of incubation period Calcein AM in PBS was added into final concentration of 1 μg/ml. After another 1 hour of incubation fluorescence (FD) was measured with the Labsystem FIA Reader Fluoroscan Ascent (UK). Growth inhibition (GI) was estimated using the following equitation: GI=(mean FDdrug exposed wells−mean FDblank)/(mean FDcontrol wells−mean FDblank)×100%. The GI50 value, the drug concentration causing 50% reduction of Calcein AM conversion, was calculated from the obtained dose response curves.

[8] = tested on: breast carcinoma cell line MCF-7; assay: Calcein AM cytotoxicity assay; format: cell-based, human
Text: as §2
(§5) Mouse cell lines B16-F10 (melanoma) and NIH-3T3 (fibroblasts) were used as well. The cells were maintained in Nunc/Corning 80 cm^2 plastic tissue culture flasks and cultured in cell culture medium (DMEM with 5 g/l glucose, 2 mM glutamine, 100 U/ml penicillin, 100 μg/ml streptomycin, 10% fetal calf serum and sodium bicarbonate).
as §4, with “In routine testing, the highest concentration tested was 166.6 μM.” left out, “FDblank)×100%.” for “FDblank)×100%. The GI50 value, the drug concentration causing 50% reduction of Calcein AM conversion, was calculated from the obtained dose response curves.”

[9] = tested on: NIH-3T3 (fibroblasts); assay: Calcein AM cytotoxicity assay; format: cell-based, Mouse
Text: as §2, §5
as §4, with “In routine testing, the highest concentration tested was 166.6 μM.” left out, “FDblank)×100%.” for “FDblank)×100%. The GI50 value, the drug concentration causing 50% reduction of Calcein AM conversion, was calculated from the obtained dose response curves.”

[10] = tested on: erytroid leukemia cell line K-562; assay: Calcein AM cytotoxicity assay; format: cell-based, human; details: Homo sapiens, K562, 72 hours
Text: as §2, §3, §4

[11] = tested on: T-lymphoblastic leukemia cell line CEM; assay: Calcein AM cytotoxicity assay; format: cell-based, human; details: 72 hours
Text: as §2, §5
as §4, with “In routine testing, the highest concentration tested was 166.6 μM.” left out, “FDblank)×100%.” for “FDblank)×100%. The GI50 value, the drug concentration causing 50% reduction of Calcein AM conversion, was calculated from the obtained dose response curves.”

[12] = tested on: promyelocytic leukemia cell line HL-60; assay: Calcein AM cytotoxicity assay; format: cell-based, human; details: read-out: GI50 HL60
Text: as §2, §5
as §4, with “In routine testing, the highest concentration tested was 166.6 μM.” left out, “FDblank)×100%.” for “FDblank)×100%. The GI50 value, the drug concentration causing 50% reduction of Calcein AM conversion, was calculated from the obtained dose response curves.”

Sequence of CRE1/AHK4 (Q9C5U0 whole entry): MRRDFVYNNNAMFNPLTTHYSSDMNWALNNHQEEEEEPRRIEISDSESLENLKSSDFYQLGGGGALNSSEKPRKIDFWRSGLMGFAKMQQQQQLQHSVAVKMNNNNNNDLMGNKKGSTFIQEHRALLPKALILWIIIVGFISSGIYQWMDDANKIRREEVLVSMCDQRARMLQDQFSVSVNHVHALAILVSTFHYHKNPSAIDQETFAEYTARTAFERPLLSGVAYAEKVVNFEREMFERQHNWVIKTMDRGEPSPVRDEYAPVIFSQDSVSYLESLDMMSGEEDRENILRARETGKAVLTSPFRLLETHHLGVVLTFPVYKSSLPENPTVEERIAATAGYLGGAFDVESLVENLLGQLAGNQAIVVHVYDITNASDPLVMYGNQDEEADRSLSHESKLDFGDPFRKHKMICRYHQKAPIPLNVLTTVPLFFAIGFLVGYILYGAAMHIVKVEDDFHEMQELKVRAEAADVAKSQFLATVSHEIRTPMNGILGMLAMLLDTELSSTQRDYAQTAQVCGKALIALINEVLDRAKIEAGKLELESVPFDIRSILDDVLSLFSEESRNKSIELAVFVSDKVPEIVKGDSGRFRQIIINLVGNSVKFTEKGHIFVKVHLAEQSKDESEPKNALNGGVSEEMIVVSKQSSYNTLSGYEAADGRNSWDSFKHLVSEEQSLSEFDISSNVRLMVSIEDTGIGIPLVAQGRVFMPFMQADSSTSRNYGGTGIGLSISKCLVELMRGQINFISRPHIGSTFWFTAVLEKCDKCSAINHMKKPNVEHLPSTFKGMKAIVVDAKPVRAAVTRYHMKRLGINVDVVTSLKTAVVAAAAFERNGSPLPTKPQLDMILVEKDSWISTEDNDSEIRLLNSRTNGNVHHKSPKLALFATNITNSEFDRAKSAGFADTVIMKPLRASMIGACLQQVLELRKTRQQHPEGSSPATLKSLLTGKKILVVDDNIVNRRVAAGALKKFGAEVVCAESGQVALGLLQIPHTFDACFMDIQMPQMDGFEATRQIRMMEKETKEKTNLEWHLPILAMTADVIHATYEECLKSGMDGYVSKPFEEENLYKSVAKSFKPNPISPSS

## COc1cc(CNc2nc(Cl)nc3nc[nH]c23)cc(OC)c1 [2-chloro-6-(3,5-dimethoxybenzylamino)purine]
[1]
  IC50: 11 µM
  Effect (anti-inflammatory activity): Inhibition

## COc1cccc(CNc2nc(Cl)nc3nc[nH]c23)c1 [2-chloro-6-(3-methoxybenzylamino)purine]
[1]
  IC50: 7 µM
  Effect (anti-inflammatory activity): Inhibition

## Oc1ccccc1Nc1nc(Cl)nc2nc[nH]c12 [Compound 8, 2-chloro-6-(2-hydroxyanilino)purine]
[2]
  EC50: 31.7 µM
[1]
  IC50: 25 µM
  Effect (anti-inflammatory activity): Inhibition

## Fc1nc(Nc2ccc(Cl)cc2)c2nc[nH]c2n1 [Compound 43]
[3]
  IC50: 27 µM
[2]
  EC50: 27 µM
[4]
  EC50: 39.8 µM
[5]
  Activity (%) [10^−5 mol · l^−1 K = 100%]: 130%
[6]
  Activity (%) [10^−5 mol · l^−1 K = 100%]: 102.6%

## Fc1cccc(Nc2nc(F)nc3[nH]cnc23)c1 [Compound 45]
[3]
  IC50: 22.1 µM
[2]
  EC50: 42.1 µM
[4]
  EC50: > 50 µM
[5]
  Activity (%) [10^−5 mol · l^−1 K = 100%]: 127.9%
[6]
  Activity (%) [10^−5 mol · l^−1 K = 100%]: 105.1%

## Nc1nc(Nc2ccc(O)cc2)c2nc[nH]c2n1 [Compound 73]
[2]
  EC50: > 50 µM
[4]
  EC50: > 50 µM
[7]
  GI50: > 167 µM
[8]; Homo sapiens, MCF7, 72 hours
  GI50: > 167 µM
[9]; Mus musculus, NIH3T3, 72 hours
  GI50: > 167 µM

## Nc1ncnc2nc[nH]c12 [adenine, reference compound]
[10]
  GI50: > 167 µM
[11]; Homo sapiens
  GI50: > 167 µM
[8]; Homo sapiens, MCF7, 72 hours
  GI50: > 167 µM
[12]; Homo sapiens, HL-60, 72 hours
  GI50: > 167 µM
[9]; Mus musculus, NIH3T3, 72 hours
  GI50: > 167 µM

## C/C(=C\CNc1ncnc2nc[nH]c12)CO [trans-zeatin, reference compound]
[2]
  EC50: 2.1 µM
[4]
  EC50: 0.9 µM
[11]
  GI50: > 167 µM
[8]; 72 hours, read-out: GI50 MCF7
  GI50: > 167 µM
[12]; 72 hours
  GI50: > 167 µM
[9]; 72 hours
  GI50: > 167 µM

Reference: patent publication US8222260B2, “Substituted 6-anilinopurine derivatives as inhibitors of cytokinin oxidase/dehydrogenase and preparations containing these derivatives” (Univerzita Palackego V Olomouci, priority 2007, dated 2012)
